Results taken from publication PMC3038857, “Using Nuclear Receptor Activity to Stratify Hepatocarcinogens” (PLoS ONE, 2011).
Read-outs that look alike come from different tables or passages of the source.

Tests used:
[1] = molecular target: T1, ESRRA (estrogen-related receptor alpha) (Homo sapiens, UniProt P11474); assay: ATG_ERRa_TRANS: Factorial reporter gene assay (HepG2); format: cell-based; conditions: scale not given, looks like -log10 of molar active concentration, 0 = no activity
T1 construct: expressed in transfected cells; host or cells: HepG2
T1 sequence (P11474 1-423): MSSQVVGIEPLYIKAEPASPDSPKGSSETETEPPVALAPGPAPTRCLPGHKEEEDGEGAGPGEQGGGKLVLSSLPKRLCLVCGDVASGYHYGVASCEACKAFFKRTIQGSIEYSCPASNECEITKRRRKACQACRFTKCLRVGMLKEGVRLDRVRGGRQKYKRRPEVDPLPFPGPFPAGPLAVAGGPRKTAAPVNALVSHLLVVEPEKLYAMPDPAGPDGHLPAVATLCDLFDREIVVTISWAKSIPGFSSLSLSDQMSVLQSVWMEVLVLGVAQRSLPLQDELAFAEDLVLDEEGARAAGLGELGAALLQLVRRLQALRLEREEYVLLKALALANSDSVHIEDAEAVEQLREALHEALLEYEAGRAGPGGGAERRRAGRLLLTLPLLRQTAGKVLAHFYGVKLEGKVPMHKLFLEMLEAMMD
Experimental: (§1) A multiple reporter transcription unit (MRTU) library consisting of 48 transcription factor binding sites was transfected into the HepG2 human liver hepatoma cell line. In addition to the cis-acting reporter genes (CIS), a modification of the approach was used to generate a trans-system (TRANS) with a mammalian one-hybrid assay consisting of an additional 25 MRTU library reporting the activity of nuclear receptor super-family members. […] These assays were performed by Attagene Inc. (Morrisville NC) under contract to EPA.
(§2) In addition to the cis-acting reporter genes (CIS), a modification of the approach was used to generate a trans-system (TRANS) with a mammalian one-hybrid assay consisting of an additional 25 MRTU library reporting the activity of nuclear receptor super-family members. […] Chemicals were then tested in the CIS and TRANS assays at seven concentrations starting at the MTC and followed by three-fold serial dilutions. These assays were performed by Attagene Inc. (Morrisville NC) under contract to EPA. Detailed description of the methods, data and analysis methods for this dataset will be presented in a separate publication.

[2] = molecular target: T2, ESRRG (estrogen-related receptor gamma) (Homo sapiens, UniProt P62508); assay: ATG_ERRg_TRANS: Factorial reporter gene assay (HepG2); format: cell-based; design: scale not given here
T2 construct: expressed in transfected cells; host or cells: HepG2
T2 sequence (P62508 1-458): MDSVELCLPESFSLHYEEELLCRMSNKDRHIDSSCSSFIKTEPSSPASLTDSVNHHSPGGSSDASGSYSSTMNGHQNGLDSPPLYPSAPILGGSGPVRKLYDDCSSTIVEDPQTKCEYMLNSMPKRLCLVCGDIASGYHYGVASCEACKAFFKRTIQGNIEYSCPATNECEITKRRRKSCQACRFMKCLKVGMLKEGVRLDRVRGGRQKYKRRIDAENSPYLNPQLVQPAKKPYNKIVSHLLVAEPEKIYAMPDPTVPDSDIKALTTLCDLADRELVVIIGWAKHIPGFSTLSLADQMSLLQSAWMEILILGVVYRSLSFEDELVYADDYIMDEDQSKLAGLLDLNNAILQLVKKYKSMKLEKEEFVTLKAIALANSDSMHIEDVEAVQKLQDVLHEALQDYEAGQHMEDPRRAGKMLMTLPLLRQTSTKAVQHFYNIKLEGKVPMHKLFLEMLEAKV
Experimental: as §1, §2

Mouse Liver = conditions: ref ToxRefDB, cited from earlier work
CAR (NR1I3) [3] = molecular target: T3, CAR (NR1I3) (Homo sapiens, UniProt Q14994); assay: NVS_NR_hCAR: Human CAR CITCO (cell-free HTS); format: binding
T3 sequence (Q14994 1-352): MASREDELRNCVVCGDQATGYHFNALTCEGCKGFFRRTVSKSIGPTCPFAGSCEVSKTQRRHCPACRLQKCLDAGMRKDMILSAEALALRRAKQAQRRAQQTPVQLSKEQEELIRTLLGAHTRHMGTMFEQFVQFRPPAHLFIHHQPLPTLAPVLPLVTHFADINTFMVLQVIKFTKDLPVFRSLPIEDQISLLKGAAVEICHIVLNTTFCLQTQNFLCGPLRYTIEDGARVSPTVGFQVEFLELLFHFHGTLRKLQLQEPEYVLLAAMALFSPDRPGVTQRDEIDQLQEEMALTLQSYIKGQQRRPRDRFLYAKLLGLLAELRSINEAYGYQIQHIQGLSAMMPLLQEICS
Source text: (§3) These are a collection of biochemical assays measuring binding constants and enzyme inhibition values. Chemicals were initially screened at a single concentration in duplicate wells at a concentration of 10 [drawing 63] M for cytochrome P-450 assays and 25 [drawing 64] M for all others. […] These assays were run by Caliper Life Sciences (Hanover, MD) under contract to EPA. Short assay descriptions are available at: http://www.caliperls.com/products/contract-research/in-vitro/.
(§4) Cell-free HTS Assays: A collection of biochemical assays measuring binding constants and enzyme inhibition values. […] These assays were run by Caliper Life Sciences (Hanover, MD) under contract to EPA. Short assay descriptions are available at http://www.caliperls.com/products/contract-research/in-vitro/. Values for all endpoints were imported into GeneData Screener (Basel, Switzerland) and normalised to solvent controls from the same plate as the tested compounds and expressed as percent of neutral control. Concentration-response curves were fit in GeneData Screener (Basel, Switzerland) Condeseo module using the Hill equation and AC50 values were determined. […] Detailed description of the methods, data and analysis methods for this dataset are described in a separate publication.

CAR (NR1I3) [4] = molecular target: T3, CAR (NR1I3); assay: NVS_NR_hCAR_Agonist: Human CAR CITCO Agonist (cell-free HTS); format: biochemical; conditions: scale not given, looks like -log10 of molar active concentration, 0 = no activity
Source text: as §3, §4

CAR (NR1I3) [5] = molecular target: T3, CAR (NR1I3); assay: ATG_CAR_TRANS: Factorial reporter gene assay (HepG2); format: cell-based; design: endogenous in cells; host or cells: HepG2
Experimental: as §1, §2

[6] = HepG2, scale not given, looks like -log10 of molar active concentration, 0 = no activity
[7] = mouse chronic study, liver, any lesion, coded 6 / Inf / 0, code not explained here
[8] = scale not given, looks like -log10 of molar active concentration, 0 = no activity

SMILES	ATG_ERRa_TRANS [1]	ATG_ERRg_TRANS [2, 6]	CHR_Mouse_Liver_1_AnyLesion (Mouse Liver; [7])	NVS_NR_hCAR (CAR (NR1I3) [3]; [8])	NVS_NR_hCAR_Agonist (CAR (NR1I3) [4])	ATG_CAR_TRANS (CAR (NR1I3) [5]; [6])	also measured
CC(C)N1C(=O)c2ccccc2NS1(=O)=O [r37]	0	0	6				
CCc1nn(C)c(C(=O)NCc2ccc(C(C)(C)C)cc2)c1Cl [r291]							ATG_ERRg_TRANS ([2]; HepG2 reporter): 5.301
Nc1cnn(-c2ccccc2)c(=O)c1Cl [r56]				0	0	0	
CC(C)=CC1C(C(=O)OCc2coc(Cc3ccccc3)c2)C1(C)C (stereo not drawn) [r280]							CHR_Mouse_Liver_1_AnyLesion (Mouse Liver; chronic study, mouse liver): 6; ATG_CAR_TRANS (CAR (NR1I3) [5]; HepG2 reporter): 4.585
CC(C)(c1ccc(O)cc1)c1ccc(O)cc1 [r40]	0	0	6	6.955	0	0	
CCCC1COC(Cn2cncn2)(c2ccc(Cl)cc2Cl)O1 (stereo not drawn) [r262]							CHR_Mouse_Liver_1_AnyLesion (Mouse Liver; mouse, chronic study): 6
COc1cc(Cl)c(OC)cc1Cl [r57]	0	0					
COc1nc(C)nc(NC(=O)NS(=O)(=O)c2ccccc2Cl)n1 [r62]	0	0		0	0	0	
Cc1ccccc1CO[C@@H]1C[C@@]2(C(C)C)CC[C@]1(C)O2 [r64]			6	0	0	0	
COc1nc(C)nc(NC(=O)NS(=O)(=O)c2ccccc2Cl)n1 [r63]	0	0		0	0	0	
CC(C)Oc1cc(-n2nc(C(C)(C)C)oc2=O)c(Cl)cc1Cl [row 225]							CHR_Mouse_Liver_1_AnyLesion (Mouse Liver; chronic mouse study, liver): 6
C#CCC1=C(C)[C@H](OC(=O)[C@H]2[C@H](C=C(C)C)C2(C)C)CC1=O [r249]							CHR_Mouse_Liver_1_AnyLesion (Mouse Liver; mouse, chronic study): 6
CCC(C)Nc1c([N+](=O)[O-])cc(C(C)(C)C)cc1[N+](=O)[O-] (stereo not drawn) [r48]	0	0					
C=CCOC(=O)C(C)(C)OC(=O)c1cc(-n2c(=O)cc(C(F)(F)F)n(C)c2=O)ccc1Cl [r47]	0	0	6	0	0	0	
CCSC(=O)N(CC(C)C)CC(C)C [r49]	0	0	6	0	0	0	
CCc1cccc(C)c1N(C(=O)CCl)C(C)COC (stereo not drawn) [row 208]							NVS_NR_hCAR (CAR (NR1I3) [3]): 4.462
CC(C)N1C(=O)N(c2ccccc2)CS/C1=N\C(C)(C)C [r45]	0	0	6	0	0	0	
O=C1C2CC=CCC2C(=O)N1SC(Cl)(Cl)Cl (stereo not drawn) [r51]	0	0		0	0	0	
O=C(Nc1ccccc1-c1ccc(Cl)cc1)c1cccnc1Cl [r42]	0	0	6	0	0	0	
